Data: US20260297109A1, “COMPOUNDS AS SUMO ACTIVATING ENZYME INHIBITORS” (WIGEN BIOMEDICINE TECHNOLOGY (SHANGHAI) CO., LTD., priority 2022, published 2026)

Target: T1, SAE (Homo sapiens, UniProt Q9UBT2)
T1 construct: endogenous in cells; host or cells: HCT116
T1 sequence (Q9UBT2 1-640): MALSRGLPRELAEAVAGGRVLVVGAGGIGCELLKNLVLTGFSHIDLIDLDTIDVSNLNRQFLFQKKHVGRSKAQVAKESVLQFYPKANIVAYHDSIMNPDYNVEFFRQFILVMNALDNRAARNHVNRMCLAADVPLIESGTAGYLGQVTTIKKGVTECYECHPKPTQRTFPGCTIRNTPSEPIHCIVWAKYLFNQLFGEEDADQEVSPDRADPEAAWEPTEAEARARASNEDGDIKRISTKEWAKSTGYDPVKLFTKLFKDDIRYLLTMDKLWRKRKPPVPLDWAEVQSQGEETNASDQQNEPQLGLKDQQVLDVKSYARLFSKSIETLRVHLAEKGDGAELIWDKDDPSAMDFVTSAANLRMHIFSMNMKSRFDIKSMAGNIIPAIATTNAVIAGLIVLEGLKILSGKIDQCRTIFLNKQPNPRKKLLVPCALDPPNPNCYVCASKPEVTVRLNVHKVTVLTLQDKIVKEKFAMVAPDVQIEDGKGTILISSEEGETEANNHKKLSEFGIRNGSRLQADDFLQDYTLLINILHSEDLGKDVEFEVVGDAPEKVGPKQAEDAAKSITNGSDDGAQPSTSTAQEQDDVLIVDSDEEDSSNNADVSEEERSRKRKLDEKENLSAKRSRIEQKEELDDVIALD
T1 sequence (Q9UBE0 1-346): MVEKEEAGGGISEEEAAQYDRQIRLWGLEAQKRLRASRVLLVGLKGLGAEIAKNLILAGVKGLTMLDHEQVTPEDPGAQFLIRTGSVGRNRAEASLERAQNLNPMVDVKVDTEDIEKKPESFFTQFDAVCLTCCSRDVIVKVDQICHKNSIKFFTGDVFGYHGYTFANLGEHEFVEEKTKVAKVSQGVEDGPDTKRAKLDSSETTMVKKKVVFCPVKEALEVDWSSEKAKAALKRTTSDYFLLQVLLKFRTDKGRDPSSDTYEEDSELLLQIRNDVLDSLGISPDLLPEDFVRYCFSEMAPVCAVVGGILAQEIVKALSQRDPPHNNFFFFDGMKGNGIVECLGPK
Experiment: SUMO IF: in vitro inhibitory activity assay against SAE in HCT116 cells (SUMO-2/3 immunofluorescence)
Assay type: cell-based
Settings: class symbols, 6 h at 37° C.
Procedure: Biological Example 1. In Vitro Inhibitory Activity Assay of Compounds of the Present Disclosure Against SAE
HCT116 cells were seeded into a 96-well black transparent bottom plate at about 20000/well with 90 μL per well. The cells were incubated at 37° C. overnight for 24 h. The test compounds were 10-fold diluted to give a final concentration, and 10 μL of the diluted compounds was added to each well of the cell culture plate. The mixture was incubated at 37° C. for 6 h. The cells were then washed gently, the culture medium was discarded, and the cells were washed once with 200 μL of 0.1% PBST. 50 μL of 4% PFA was added to each well, and the cells were immobilized at room temperature for 20 min, and then washed with PBS 2-3 times. 50 μL of 0.2% Triton X-100 was added to each well, and the cells were left to stand at room temperature for 15 min and washed with 0.1% PBST 3 times. 100 μL of 3% BSA (0.6 g BSA+20 mL PBS) was added to each well, and the mixture was blocked at 37° C. for 30 min. After the blocking was completed, the liquid was removed and a primary antibody (SUMO-2/3 (18H8) Rabbit mAb, 1:400 dilution) was prepared with 1% BSA. 30 μL of the diluted primary antibody was added to each well, and the mixture was incubated at 4° C. overnight. The cells were washed 3 times with 200 μL of 0.1% PBST. A FITC secondary antibody (Fluorescein (FITC)-conjugated Affinipure Goat Anti-Rabbit IgG (H+L), 1:300 dilution) was further prepared with 1% BSA, and 40 μL of the diluted secondary antibody was added to each well. The mixture was incubated at room temperature in the dark for 2 h, and then the cells were washed 4 times with 0.1% PBST. The fluorescence signal of the sample was detected and compared to the DMSO group, and the inhibition rate and IC50 were calculated.

SMILES | IC50
NS(=O)(=O)OC[C@H]1[C@H](F)[C@@H](Nc2ncncc2C(=O)c2cc3c(s2)CCCC32NCCc3ccccc32)C[C@@H]1O (some centres unmarked) [Compound 85] | 50 to 200 nM
NS(=O)(=O)OC[C@H]1[C@H](F)[C@@H](Nc2ncncc2C(=O)c2cc3c(s2)CCC[C@@]32NCCc3ccccc32)C[C@@H]1O [Compound 86] | > 200 nM
NS(=O)(=O)OC[C@H]1[C@H](F)[C@@H](Nc2ncncc2C(=O)c2cc3c(s2)CCC[C@]32NCCc3ccccc32)C[C@@H]1O [Compound 87] | ≤ 50 nM
NS(=O)(=O)OC[C@H]1[C@H](F)[C@@H](Nc2ncncc2C(=O)c2cc3c(s2)CCCC32NCCc3ccc(Cl)cc32)C[C@@H]1O (some centres unmarked) [Compound 88] | ≤ 50 nM
NS(=O)(=O)OC[C@H]1[C@H](F)[C@@H](Nc2ncncc2C(=O)c2cc3c(s2)CCCC32NCCc3ccc(F)cc32)C[C@@H]1O (some centres unmarked) [Compound 91] | 50 to 200 nM
N#Cc1ccc2c(c1)C1(CCCc3sc(C(=O)c4cncnc4N[C@H]4C[C@H](O)[C@@H](COS(N)(=O)=O)[C@@H]4F)cc31)NCC2 (some centres unmarked) [Compound 94] | 50 to 200 nM
N#Cc1ccc2c(c1)[C@]1(CCCc3sc(C(=O)c4cncnc4N[C@H]4C[C@H](O)[C@@H](COS(N)(=O)=O)[C@@H]4F)cc31)NCC2 [Compound 95] | > 200 nM
N#Cc1ccc2c(c1)[C@@]1(CCCc3sc(C(=O)c4cncnc4N[C@H]4C[C@H](O)[C@@H](COS(N)(=O)=O)[C@@H]4F)cc31)NCC2 [Compound 96] | ≤ 50 nM
NS(=O)(=O)OC[C@H]1[C@H](F)[C@@H](Nc2ncncc2C(=O)c2cc3c(s2)COCC32NCCc3ccccc32)C[C@@H]1O (some centres unmarked) [Compound 97] | > 200 nM
NS(=O)(=O)OC[C@H]1[C@H](F)[C@@H](Nc2ncncc2C(=O)c2cc3c(s2)COC[C@@]32NCCc3ccccc32)C[C@@H]1O [Compound 98] | > 200 nM
NS(=O)(=O)OC[C@H]1[C@H](F)[C@@H](Nc2ncncc2C(=O)c2cc3c(s2)COC[C@]32NCCc3ccccc32)C[C@@H]1O [Compound 99] | 50 to 200 nM
NS(=O)(=O)OC[C@H]1[C@H](F)[C@@H](Nc2ncncc2C(=O)c2cc3c(s2)COCC32NCCc3ccc(F)cc32)C[C@@H]1O (some centres unmarked) [Compound 100] | 50 to 200 nM
NS(=O)(=O)OC[C@H]1[C@H](F)[C@@H](Nc2ncncc2C(=O)c2cc3c(s2)COC[C@@]32NCCc3ccc(F)cc32)C[C@@H]1O [Compound 101] | > 200 nM
NS(=O)(=O)OC[C@H]1[C@H](F)[C@@H](Nc2ncncc2C(=O)c2cc3c(s2)COC[C@]32NCCc3ccc(F)cc32)C[C@@H]1O [Compound 102] | 50 to 200 nM
NS(=O)(=O)OC[C@H]1[C@H](F)[C@@H](Nc2ncncc2C(=O)c2cc3c(s2)COCC32NCCc3ccc(Cl)cc32)C[C@@H]1O (some centres unmarked) [Compound 103] | 50 to 200 nM
Cc1ccc2c(c1)C1(CCCc3sc(C(=O)c4cncnc4N[C@H]4C[C@H](O)[C@@H](COS(N)(=O)=O)[C@@H]4F)cc31)NCC2 (some centres unmarked) [Compound 106] | 50 to 200 nM
NS(=O)(=O)OC[C@H]1[C@H](F)[C@@H](Nc2ncncc2C(=O)c2cc3c(s2)CCCC32NCCc3ccc(C4CC4)cc32)C[C@@H]1O (some centres unmarked) [Compound 107] | 50 to 200 nM
COc1ccc2c(c1)C1(CCCc3sc(C(=O)c4cncnc4N[C@H]4C[C@H](O)[C@@H](COS(N)(=O)=O)[C@@H]4F)cc31)NCC2 (some centres unmarked) [Compound 108] | > 200 nM
NS(=O)(=O)OC[C@H]1[C@H](F)[C@@H](Nc2ncncc2C(=O)c2cc3c(s2)CCCC32NCCc3ccc(C(F)(F)F)cc32)C[C@@H]1O (some centres unmarked) [Compound 109] | 50 to 200 nM

SMILES | IC50
NS(=O)(=O)OC[C@H]1[C@H](F)[C@@H](Nc2ncncc2C(=O)c2cc3c(s2)CCCC32NCCc3cc(F)c(F)cc32)C[C@@H]1O (some centres unmarked) [Compound 110] | 50 to 200 nM
NS(=O)(=O)OC[C@H]1[C@H](F)[C@@H](Nc2ncncc2C(=O)c2cc3c(s2)CCCC32NCCc3cc(F)c(Cl)cc32)C[C@@H]1O (some centres unmarked) [Compound 111] | ≤ 50 nM
NS(=O)(=O)OC[C@H]1[C@H](F)[C@@H](Nc2ncncc2C(=O)c2cc3c(s2)CCCC32NCCc3cc(Cl)c(Cl)cc32)C[C@@H]1O (some centres unmarked) [Compound 112] | 50 to 200 nM
Cc1cc2c(cc1Cl)C1(CCCc3sc(C(=O)c4cncnc4N[C@H]4C[C@H](O)[C@@H](COS(N)(=O)=O)[C@@H]4F)cc31)NCC2 (some centres unmarked) [Compound 113] | 50 to 200 nM
N#Cc1cc2c(cc1Cl)C1(CCCc3sc(C(=O)c4cncnc4N[C@H]4C[C@H](O)[C@@H](COS(N)(=O)=O)[C@@H]4F)cc31)NCC2 (some centres unmarked) [Compound 114] | 50 to 200 nM
COc1cc2c(cc1Cl)C1(CCCc3sc(C(=O)c4cncnc4N[C@H]4C[C@H](O)[C@@H](COS(N)(=O)=O)[C@@H]4F)cc31)NCC2 (some centres unmarked) [Compound 115] | 50 to 200 nM
NS(=O)(=O)OC[C@H]1[C@H](F)[C@@H](Nc2ncncc2C(=O)c2cc3c(s2)CCCC32NCCc3cc(F)c(Cl)c(F)c32)C[C@@H]1O (some centres unmarked) [Compound 116] | 50 to 200 nM
NS(=O)(=O)OC[C@H]1[C@H](F)[C@@H](Nc2ncncc2C(=O)c2cc3c(s2)CCCC32NCCc3cc(Cl)c(F)cc32)C[C@@H]1O (some centres unmarked) [Compound 117] | 50 to 200 nM
NS(=O)(=O)OC[C@H]1[C@H](F)[C@@H](Nc2ncncc2C(=O)c2cc3c(s2)CCCC32NCCc3ccncc32)C[C@@H]1O (some centres unmarked) [Compound 118] | 50 to 200 nM
NS(=O)(=O)OC[C@H]1[C@H](F)[C@@H](Nc2ncncc2C(=O)c2cc3c(s2)CCCC32NCCc3cc(Cl)ncc32)C[C@@H]1O (some centres unmarked) [Compound 119] | 50 to 200 nM
NS(=O)(=O)OC[C@H]1[C@H](F)[C@@H](Nc2ncncc2C(=O)c2cc3c(s2)C=CCC32NCCc3ccc(Cl)cc32)C[C@@H]1O (some centres unmarked) [Compound 120] | ≤ 50 nM
NS(=O)(=O)OC[C@H]1[C@H](F)[C@@H](Nc2ncncc2C(=O)c2cc3c(s2)CC=CC32NCCc3ccc(Cl)cc32)C[C@@H]1O (some centres unmarked) [Compound 121] | ≤ 50 nM
NS(=O)(=O)OC[C@H]1[C@H](F)[C@@H](Nc2ncncc2C(=O)c2cc3c(s2)OCCC32NCCc3ccc(Cl)cc32)C[C@@H]1O (some centres unmarked) [Compound 122] | 50 to 200 nM
NS(=O)(=O)OC[C@H]1[C@H](F)[C@@H](Nc2ncncc2C(=O)c2cc3c(s2)CCCC32NCC3(CC3)c3ccc(Cl)cc32)C[C@@H]1O (some centres unmarked) [Compound 123] | 50 to 200 nM
NS(=O)(=O)OC[C@H]1[C@H](F)[C@@H](Nc2ncncc2C(=O)c2cc3c(s2)CCCC32NC3(CC3)Cc3ccc(Cl)cc32)C[C@@H]1O (some centres unmarked) [Compound 124] | 50 to 200 nM
NS(=O)(=O)OC[C@H]1[C@H](F)[C@@H](Nc2ncncc2C(=O)c2cc3c(s2)CCCC32NCC(=O)c3ccc(Cl)cc32)C[C@@H]1O (some centres unmarked) [Compound 125] | 50 to 200 nM
NS(=O)(=O)OC[C@H]1[C@H](F)[C@@H](Nc2ncncc2C(=O)c2cc3c(s2)CCCC32OCCc3ccc(Cl)cc32)C[C@@H]1O (some centres unmarked) [Compound 126] | ≤ 50 nM
NS(=O)(=O)OC[C@H]1[C@H](F)[C@@H](Nc2ncncc2C(=O)c2cc3c(s2)CCC32NCCc3ccccc32)C[C@@H]1O (some centres unmarked) [Compound 127] | > 200 nM

Same assay, conditions: numeric values, 6 h at 37° C.

SMILES | IC50
NS(=O)(=O)OC[C@H]1[C@H](F)[C@@H](Nc2ncncc2C(=O)c2cc3c(s2)CCC[C@@]32NCCc3ccc(Cl)cc32)C[C@@H]1O [Compound 89] | > 1000 nM
NS(=O)(=O)OC[C@H]1[C@H](F)[C@@H](Nc2ncncc2C(=O)c2cc3c(s2)CCC[C@@]32NCCc3ccc(F)cc32)C[C@@H]1O [Compound 92] | > 1000 nM
NS(=O)(=O)OC[C@H]1[C@H](F)[C@@H](Nc2ncncc2C(=O)c2cc3c(s2)COC[C@@]32NCCc3ccc(Cl)cc32)C[C@@H]1O [Compound 104] | > 1000 nM
NS(=O)(=O)OC[C@H]1[C@H](F)[C@@H](Nc2ncncc2C(=O)c2cc3c(s2)COC[C@]32NCCc3ccc(Cl)cc32)C[C@@H]1O [Compound 105] | 79.3 nM
